Data: ChEMBL document CHEMBL1144958 (Bioorg Med Chem Lett, 2003)

Assays:
HEK293 = experiment: Binding affinity towards nicotinic acetylcholine receptor alpha7 - 5-hydroxytryptamine 3 receptor was determined in transfected HEK cells (alpha7) using [125I]-alpha-BgTx as radioligand; format: cell-based
[1] = target: Neuronal acetylcholine receptor; alpha4/beta2 (Rattus norvegicus, UniProt P09483+P12390); experiment: Binding affinity towards alpha4-beta2 nicotinic receptor was determined in rat brain membrane using [3H]cytisine as radioligand; format: cell membranes
Neuronal acetylcholine receptor; alpha4/beta2, sequence (P09483 whole entry): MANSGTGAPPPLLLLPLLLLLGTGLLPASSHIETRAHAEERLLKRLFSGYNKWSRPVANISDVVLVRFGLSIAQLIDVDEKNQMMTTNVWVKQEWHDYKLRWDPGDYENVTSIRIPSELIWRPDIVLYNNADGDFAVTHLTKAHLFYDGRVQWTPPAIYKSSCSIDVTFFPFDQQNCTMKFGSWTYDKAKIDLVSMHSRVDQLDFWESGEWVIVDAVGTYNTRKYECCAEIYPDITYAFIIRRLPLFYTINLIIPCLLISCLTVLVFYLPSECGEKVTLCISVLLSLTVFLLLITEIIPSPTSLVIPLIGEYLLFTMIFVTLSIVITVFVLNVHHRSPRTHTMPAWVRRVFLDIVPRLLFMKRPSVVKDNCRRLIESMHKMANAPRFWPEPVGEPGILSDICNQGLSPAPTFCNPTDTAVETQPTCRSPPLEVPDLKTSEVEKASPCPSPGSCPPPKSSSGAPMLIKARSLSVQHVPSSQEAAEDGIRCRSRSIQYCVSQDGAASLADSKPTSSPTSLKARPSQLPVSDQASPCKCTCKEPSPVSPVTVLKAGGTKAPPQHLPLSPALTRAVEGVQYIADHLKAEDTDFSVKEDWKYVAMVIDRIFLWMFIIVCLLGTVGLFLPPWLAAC
Neuronal acetylcholine receptor; alpha4/beta2, sequence (P12390 whole entry): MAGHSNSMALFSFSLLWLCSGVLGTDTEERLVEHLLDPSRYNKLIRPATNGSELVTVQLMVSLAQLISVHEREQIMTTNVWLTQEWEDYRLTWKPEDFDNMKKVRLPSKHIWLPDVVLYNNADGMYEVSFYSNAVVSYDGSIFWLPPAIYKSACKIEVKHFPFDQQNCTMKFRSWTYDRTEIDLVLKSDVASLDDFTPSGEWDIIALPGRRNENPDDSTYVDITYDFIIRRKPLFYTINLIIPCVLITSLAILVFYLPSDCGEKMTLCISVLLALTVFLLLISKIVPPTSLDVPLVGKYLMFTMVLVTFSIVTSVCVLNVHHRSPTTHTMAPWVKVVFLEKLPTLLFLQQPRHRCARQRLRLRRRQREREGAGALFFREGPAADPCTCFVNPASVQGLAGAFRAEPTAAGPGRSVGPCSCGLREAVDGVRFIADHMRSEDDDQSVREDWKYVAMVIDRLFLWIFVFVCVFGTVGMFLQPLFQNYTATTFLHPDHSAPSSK

Row | Compound | binding affinity (HEK293) [µM] | Ki [1] [nM]
1 | O=C(CCl)Nc1ccc(C2CC3CCC2N3)cn1 (configuration not stated) | 23 | 16.3
2 | Clc1ncc(C2CC3CCC2N3)cn1 (configuration not stated) | 0.76 | 0.31
3 | COC(=O)Nc1ccc(C2CC3CCC2N3)cn1 (configuration not stated) | > 1000 | 8100
4 | Clc1ccc(C2CC3CCC2N3)cn1 (configuration not stated) | 0.075 | 
